# Test results: patent publication US20230041859A1, “USE OF TERPENOIDS IN THE TREATMENT OR PREVENTION OF FIBROTIC DISEASES” (Arjil Biotech Holding Company Limited, priority 2021, published 2023)
# Where “and” joins values, the source holds several entries; their conditions need not be identical. Equal values may be shown once.
# Columns and labels:
# [1] = test system: bleomycin-induced pulmonary fibrosis; test: Bleomycin-induced pulmonary fibrosis in mice: body weight, lung weight, lung index; assay type: in vivo; settings: for Pulmonary index: lung weight/body weight×100
# Description: (§1) Specific pathogen-free ICR mice (males) (body weights 18-22 g) were purchased from the BioLASCO Taiwan Co., Ltd. (Taipei, Taiwan). The animals were housed in Plexiglas cages at a constant temperature of 22±1° C. and a relative humidity of 55±5% on a 12 h dark-light cycle for at least 2 weeks before the experiment. Animals were provided food and water ad libitum. All experimental procedures were performed according to the guidelines of the Institutional Animal Ethics Committee, and the protocol was approved by the Committee for the Purpose of Control and Supervision of Experiments on Animals.
# (§2) Mice were divided into fifth groups with 5 animals per group according to body weight: control group, BLM group, BLM+DEX group (7.5 mg/kg), BLM+ACH dosage group (50 mg/kg), and BLM+ACM dosage group (25 mg/kg), BLM+ACH dosage group (50 mg/kg), and BLM+ACM dosage group (25 mg/kg) BLM+AH dosage group (50 mg/kg), and BLM+AM dosage group (25 mg/kg) BLM+BH dosage group (50 mg/kg), and BLM+BM dosage group (25 mg/kg) BLM+CH dosage group (50 mg/kg), and BLM+CM dosage group (25 mg/kg) BLM+DH dosage group (50 mg/kg), and BLM+DM dosage group (25 mg/kg) BLM+EH dosage group (50 mg/kg), and BLM+EM dosage group (25 mg/kg) BLM. Pulmonary fibrosis (PF) was established in mice via a single intratracheal administration of BLM at 7.5 mg/kg mg/kg body weight. Different doses of samples were intragastrically administered daily for 21 days after BLM injury, and DEX was used as the positive control. Control and model groups received an equal volume of vehicle (0.9% NaCl) using the same schedule and route of administration.
# Mouse body weights were recorded daily. Mice were sacrificed on the 21th day using excess chloral hydrate hydrochloride anesthesia. Blood was obtained for ELISA analyses, and whole lungs were removed and weighed. The right lungs were fixed in 10% formalin, dehydrated, and embedded in paraffin. The left lungs were used to determine hydroxyproline. The pulmonary coefficient was calculated using the following equation: lung weight/body weight×100% […]
# At the end point of the entire experiment, the animal's body weight and lung weight were recorded.
# [2] = test system: bleomycin-induced pulmonary fibrosis; test: Bleomycin-induced pulmonary fibrosis: hydroxyproline content in lung tissue; assay type: in vivo, mice; settings: 50 mg/kg (high-dose groups); p<0.001
# Description: as §2
# (§3) 1. Group I: control; 2. Group II: mice received single intraperitoneal injection of BLM (7.5 mg/kg BW) 3. Group III: single dose (ACH, 0.5 g/kg) 4. Group IV: Single dose (ACM, 1.0 g/kg) 5. […] Group VII: purified AR101-DS2 (50 mg/kg) 8. Group VIII: purified AR101-DS2 (25 mg/kg) 7. Group VII: purified AR101-DS4 (50 mg/kg) 8. Group VIII: purified AR101-DS4 (25 mg/kg) 7. […] Group VII: purified ARH013-RA1 (50 mg/kg) 8. Group VIII: purified ARH013-RA1 (25 mg/kg)
# MPO = test: Bleomycin-induced pulmonary fibrosis: lung myeloperoxidase (MPO) assay; assay type: in vivo, mice; settings: 50 mg/kg (high-dose groups); vs BLM group p<0.001
# Description: as §2, §3
# The lung tissues were homogenized and the MPO levels were detected with the kits according to manufacturer's instruction.
# [3] = test system: TNF-α, IL-1β, IL-6 and TGF-β; test: Bleomycin-induced pulmonary fibrosis: pro-inflammatory cytokines (ELISA); assay type: in vivo, mice; settings: 50 mg/kg (high-dose groups); serum (FIG. 35 legend: BALF); p<0.001
# Description: as §2
# 1. Group I: control; 2. […]
# The serum concentration of the pro-inflammatory cytokines (i.e. tumor necrosis factor-α (TNF-α), interleukin-6 (IL-6), and IL-1β) in serum were assessed with relevant enzyme-linked immunosorbent assay (ELISA) kits (Biosource International Inc., Sunnyvale, Calif., USA), based on the manufacturer's instructions. […]
# [4] = test system: bleomycin-induced pulmonary fibrosis; test: Bleomycin-induced pulmonary fibrosis: lung histopathology (H&E, Masson's trichrome); assay type: in vivo, mice; settings: 50 mg/kg (high-dose groups)
# Description: as §2
# 1. Group I: control; 2. Group II: mice received single intraperitoneal injection of BLM (7.5 mg/kg BW) 3. Group III: single dose (ACH, 0.5 g/kg) 4. Group IV: Single dose (ACM, 1.0 g/kg) 5. […] Group VII: purified AR101-DS2 (50 mg/kg) 8. Group VIII: purified AR101-DS2 (25 mg/kg) 7. Group VII: purified AR101-DS4 (50 mg/kg) 8. Group VIII: purified AR101-DS4 (25 mg/kg) 7. […]
# [5] = test system: cisplatin-induced renal injury; test: Mice model of cisplatin-induced renal injury: serum creatinine (CRE) and BUN; assay type: in vivo; settings: compounds, dose not given, daily for 7 days; p<0.001 vs cisplatin group
# Description: Determination of biochemical parameters Serum creatinine and serum urea are assessed using colorimetric kits according to manufacturer's instructions. Kits of the former markers are purchased from (HUMAN Diagnostics Worldwide, Magdeburg, Germany) with a chemical analyzer (Roche Diagnostics, Cobas Mira Plus, Rotkreuz, Switzerland).
# as §1, with “Seven-to-eight-week-old male C57BL/6” for “Specific pathogen-free ICR”, “are obtained” for “(males) (body weights 18-22 g) were purchased”, “are” for “were”, “is” for “was”
# Renal fibrosis is induced via multiple injections of low-dose cisplatin. Intraperitoneal injections of cisplatin (5 mg/kg/injection; P4394, Sigma-Aldrich, St Louis, Mo.) are performed at 0, 1, and 3 weeks, for a total of 3 injections. Mice are sacrificed at 6 weeks after the first dose of cisplatin (n=6). To analyze the effects of samples, mice are given daily intraperitoneal injections for 7 days, starting from 4 weeks after first dose of cisplatin, and sacrificed at […] (n=6). […]
# HepG2 cells = test: Oleic acid-induced steatosis in HepG2 cells (Oil Red O); assay type: cell-based, human; settings: 6 h pre-treatment, then 0.5 mM OA for 24 h, OD 510 nm, at noncytotoxic concentration
# Description: Oleic acid (OA) induced steatosis in HepG2 cells and may consider an in vitro model for human fatty liver disease. HepG2 cells were treated with different concentrations of oleic acid (OA) to induce steatosis. Intracellular lipid was stained by Oil Red O (ORO), and quantified by colorimetric assay. 0.5 mM OA was chosen for further studies (FIGS. 37 and 38). HepG2 cells were treated with test compounds ([…]) and incubated for 48 h (FIG. 39). HepG2 cells were seeded in 24-well plates and deprived from FBS for 24 h. These cells were then treated with different concentrations of test compounds for 6 h before induced with 0.5 mM OA for 24 h. Cells were gently washed with PBS and fixed using paraformaldehyde at RT, then stained with Oil Red (ORO) solution for 30 min at RT. ORO stain was extracted using pure isopropanol and the optical density was detected at 510 nm (FIG. 40).
# [6] = test system: atherosclerosis and liver fibrosis in hypercholesterolemic rabbit; test: Hypercholesterolemic rabbit model (0.5% cholesterol chow), liver histology scores; assay type: in vivo; settings: 10 mg/kg in 0.5% cholesterol chow; individual liver slides, 12-week study
# Description: 2 to 3 kg male, New Zealand White rabbits are individually caged and housed in temperature and humidity-controlled rooms. Light-dark cycles are 12 h each. After several days of acclimation, the animals are sequentially assigned to six feeding groups: standard rabbit chow, standard rabbit chow containing 0.5% cholesterol, standard rabbit chow containing both 0.5% cholesterol and 10 mg/kg Lovastatin, standard rabbit chow containing both 0.5% cholesterol and 1% ARH003, standard rabbit chow containing both 0.5% cholesterol and 1% ARH004, standard rabbit chow containing both 0.5% cholesterol and 10 mg/kg AR101-DS2. Except standard rabbit chow, others groups are given standard rabbit chow containing 0.5% cholesterol for 4 weeks (see FIGS. 14-15). The daily feeding amount for each rabbit is 50 g/kg body weight per day. Diets are administered for 8 weeks, after the animals had adjusted to their new environment. At the beginning and end of the 12 weeks study, the rabbits are anesthetized by an intramuscular injection of Zoletil 50 (1 mL/kg) (Virbac Ltd., France), and blood samples are harvested. Finally, the aortas (from aortic arch to the bifurcation of the iliac arteries) and whole livers are collected from the rabbits after they are sacrificed for further histopathological analyses.
# (ND) standard rabbit chow, n=5; (HF) standard rabbit chow containing 0.5% cholesterol, n=6; (L) standard rabbit chow containing both 0.5% cholesterol and 10 mg/kg Lovastatin, n=4; (AR003) standard rabbit chow containing both 0.5% cholesterol and 1% ARH003, n=5; (AR004) standard rabbit chow containing both 0.5% cholesterol and 1% ARH004, n=5; (AR101-DS2) standard rabbit chow containing both 0.5% cholesterol and 10 mg/kg AR101-DS2, n=5; The daily feeding amount for each rabbit is 50 g/kg body weight per day.
# The rabbit liver tissues (shown in FIG. 29) are perfused with normal saline and fixed in 10% (v/v) formalin-neutralized solution (J.T. Baker, Inc., USA) for 24 hr. […] Briefly, the slices are washed with pure water for 1 min to remove the OCT compound, washed with 50% (v/v) ethanol for 30 sec, and then stained with 2% (w/v) Sudan IV for 1 hr. After further washing with 50% (v/v) ethanol and pure water for 2 min, the slices are counterstained with hematoxylin. Photographs shown in FIG. 30 are acquired using a microscope equipped with a 10-fold magnification objective and quantified on an Alpha Imager 2200 documentation system (Alpha Innotech, USA). […]
# [7] = 25 mg/kg intragastric daily for 21 days after BLM
# [8] = 50 mg/kg intragastric daily for 21 days after BLM
# [9] = DEX 7.5 mg/kg daily for 21 days after BLM
Molecule,"Final body mass [1, 7]","Pulmonary mass [1, 7]","Final body mass [1, 8]","Pulmonary mass [1, 8]",hydroxyproline (HP) content in lung tissue [2],lung MPO activities (MPO),"TNF-α, IL-1β, IL-6 and TGF-β production after BLM challenge [3]",necrosis and inflammatory infiltrating cells in the lung tissue [4],Score of Inflammation [6],Score of Steatosis Grade [6],further results
"C=C(CC[C@@H](C)[C@H]1CC[C@H]2C3=C(C(=O)C[C@]12C)[C@@]1(C)CC[C@@H](O)[C@](C)(O)[C@@H]1C[C@@H]3O)[C@@H](C)C(=O)O (racemic) [AR101-DS1, RS-Antcin K]",36.45 ± 0.28 g,0.52 ± 0.01 g,39.02 ± 0.37 g,0.46 ± 0.01 g,reduced,evidently suppressed,,,,,
"C=C1C(=O)O[C@@H]2/C=C(\C)C[C@H]3C=C(CC/C=C(\C)CC[C@@H]12)C(=O)O3 [AR100-DS1, Ovatodiolide]",,,,,reduced,evidently suppressed,improved,significantly improved,,,
"C=C(CC[C@@H](C(=O)O)[C@H]1CC[C@@]2(C)C3=CC[C@H]4C(C)(C)[C@@H](O)CC[C@]4(C)C3=CC[C@]12C)C(C)C [AR101-DS4, Dehydroeburicoic Acid]",36.44 ± 0.28 g,0.52 ± 0.01 g,37.47 ± 0.22 g,0.49 ± 0.01 g,,,,,,,"renal protection effect (normalization of serum CRE and BUN) [5]: significant renal protection effect; Pulmonary index [1, 7]: 1.54 ± 0.04; Pulmonary index [1, 8]: 1.31 ± 0.01; OA-induced steatosis in HepG2 cells (HepG2 cells): inhibition"
"C[C@@H]1C[C@H]2[C@@H]3CCC4=CC(=O)C=C[C@]4(C)[C@@]3(F)[C@@H](O)C[C@]2(C)[C@@]1(O)C(=O)CO [DEX, Dexamethasone, reference compound]",,,,,,,,,,,"Final body mass [1, 9]: 38.50 ± 0.22 g; Pulmonary mass [1, 9]: 0.42 ± 0.01 g; Pulmonary index [1, 9]: 1.09 ± 0.02"
"CC[C@H](C)C(=O)O[C@H]1C[C@@H](C)C=C2C=C[C@H](C)[C@H](CC[C@@H]3C[C@@H](O)CC(=O)O3)[C@H]21 [L, Lovastatin, reference compound]",,,,,,,,,"1 (1′: mild, 2 foci per 200 field) and 2 (2′: moderate, 2-4 foci per 200 field)",2 (2′: 33-66%) (2×) and 0 (0′: low- to medium-power evaluation of parenchymal involvement <5%),
Dehydrosulphurenic acid/Sulphurenic acid [AR101-DS2],,,,,reduced,evidently suppressed,improved,significantly improved,"1 (1′: mild, 2 foci per 200 field) (2×) and 2 (2′: moderate, 2-4 foci per 200 field)",3 (3′: >66%) (2×) and 1 (1′: 5-33 %),"Pulmonary index ([1]; 50 mg/kg intragastric daily for 21 days after BLM, listed as BH): significant decrease"
